Columns and labels:
EPNT-5 cells = test: MTT assay 72 h, 7 and TMZ alone and combined, synergy (HSA), EPNT-5; assay type: cell-based, mouse
Protocol: (§1) The drug synergy score was calculated for the dose-response matrix according to the highest single-agent (HSA) model using the SynergyFinder + web application (https://www.synergyfinder.org/).

U118 cells [1] = test: Annexin V-FITC/propidium iodide flow cytometry, U118, 48 h; assay type: cell-based, human
Protocol: To observe apoptosis and necrosis, U87 and U118 cells were stained with Annexin V-FITC and propidium iodide (ab14085; Abcam, Inc., Cambridge, MA, USA) after 48 h of incubation with compound 7 (0–2000 nM) according to the manufacturer’s protocol (n = 3). To quantify the total proportion of apoptotic cells in control and experimental groups, the events accumulated in the lower right quadrant (early apoptosis) and upper right quadrant (late apoptosis) were summarized.
After staining, 10,000 cells per sample were analyzed on a NovoCyte flow cytometer using NovoExpress software (ACEA Biosciences, Inc., USA).

[2] = system: N-cadherin, fibronectin, Slug, OLIG2 expression in TGF-β1-induced U87 cells; test: qRT-PCR of GMT markers in U87 cells; assay type: cell-based, human; conditions: 48 h
Protocol: Total RNA was extracted using TRIzol Reagent (Ambion, Austin, TX, USA) according to the manufacturer’s protocol. Subsequently, the first strand cDNA was synthesized from 4 μg of total RNA using an oligo (dT)18 primers and M-MuLV-RH revertase (Biolabmix, Novosibirsk, Russia). Finally, RT-qPCR was performed using specific primers (Table 1) and BioMaster SYBR Blue reagent kit (Biolabmix, Novosibirsk, Russia). Relative expression was determined by normalization to the housekeeping gene HPRT using the 2^−ΔΔCT method (Livak and Schmittgen 2001).

U118 cells [3] = test: Colony formation assay, U118 cells; assay type: cell-based; conditions: Homo sapiens, 240 h, 10 days
Protocol: U87, U118 and EPNT-5 cells were seeded at a density of 200 cells/well in 96-well plates and treated with increasing concentrations of compound 7 (0–1,000 nM) dissolved in 10% FBS-containing DMEM (n = 5). On day 10, colonies were fixed with 4% formaldehyde and stained with crystal violet dye (0.1% w/v). Images were captured using the iBright 1,500 Imaging System (Invitrogen, USA) and the area of colonies with a minimum diameter of 100 µm was calculated using ImageJ. In the case of overlapping colonies, their total area was calculated. Finally, the area of the formed cell colonies was summed and normalized to the total colony area in the control.

U118 glioblastoma cells = test: MTT cell viability assay, U118 cells, 48 h; assay type: cell-based; conditions: Homo sapiens
Protocol: Cells were seeded in quadruplicate in 96-well plates at 10,000 cells/well and allowed to adhere overnight. The medium was then replaced with serum-free DMEM containing increasing concentrations of soloxolone amides for 48 h. After incubation, 3-(4,5-dimethylthiazol-2-yl)-2,5-diphenyltetrazolium bromide (MTT dye) was added at a final concentration of 0.5 mg/mL and left for 2 h. The resulting formazan crystals were dissolved in DMSO and the optical density was measured at 570 nm using a Multiscan RC plate reader (Thermo LabSystems, Helsinki, Finland).

SMAD2/3 = SMAD2/3 nuclear translocation (immunofluorescence), U87 cells; assay type: cell-based, human; conditions: U87, 7 50 nM pretreatment 48 h, TGF-β1 50 ng/mL 1 h
Protocol: U87 cells (150,000 cells/well) were allowed to attach to glass coverslips in 24-well plates prior to 48-h incubation with compound 7 (50 nM) under serum-free conditions, followed by stimulation with TGF-β1 (50 ng/mL) for 1 h. After fixation in 4% formaldehyde for 20 min, cells were incubated with primary antibodies against Smad2/3 (1:100, ab202445) for 1 h under permeabilizing conditions (0.1% Triton X100, 5 mg/mL BSA, 37°C) and Alexa Fluor 488-conjugated secondary antibodies (1:500, ab150077) for 1 h in the dark. Finally, nuclei were stained with DAPI (1 μg/mL) for 10 min and cells were mounted on glass slides with Fluoromount-G (Thermo Fisher Scientific, Rockford, IL, USA). Images were captured using a LSM710 confocal microscope (Zeiss, Oberkochen, Germany) at ×40 magnification. Nuclear translocation was quantified by measuring the ratio of nuclear to perinuclear intensity of Alexa Fluor 488 in CellProfiler software (Broad Institute, Cambridge, MA, USA) for 50 cells per experimental group (n = 3).

U118 cells [4] = test: MTT assay 72 h, 7 and TMZ alone and combined, synergy (HSA), U118; assay type: cell-based, human
Protocol: as §1

[5] = Toxicity assessment in U87 glioblastoma-bearing mice; assay type: in vivo, athymic nude mice; conditions: 7 20 mg/kg i.p. or TMZ 10 mg/kg i.p. injected alone
Protocol: During the experiment, the general status and body weight of the animals were monitored. At the end of the experiment, livers and kidneys were collected and organ indices were calculated as (organ weight/body weight) × 100%, followed by the normalization of organ indices of experimental mice to organ indices of control mice.

TGF-β1-treated U87 cells = test: Adhesion of U87 cells to culture plastic (TrypLE treatment assay); assay type: cell-based, human; conditions: TGF-β1 50 ng/mL, non-toxic concentrations, 48 h
Protocol: Adhesiveness of glioblastoma cells was assessed by two independent methods. First, cell adhesion to culture plastic was tested using a trypsin treatment assay, as previously described ([Sava et al., 2004]; [Mazuryk et al., 2015]; [van Dijk et al., 2017]). Briefly, U87 and U118 cells (10,000 cells per well of a 96-well plate, n = 4) were cultured with TGF-β1 (50 ng/mL) and non-toxic concentrations of soloxolone amides for 48 h and then treated with a 1:20 dilution of TrypLE Express (Gibco, USA) in PBS for 3 min at 37°C. Non-adherent cells were then removed by a triple PBS wash, and the remaining adherent cells were fixed with 4% formaldehyde and stained with crystal violet dye (0.1% w/v). Images were captured using the iBright 1,500 Imaging System (Invitrogen, USA), and the cell-occupied area was calculated using ImageJ. Alternatively, the number of adherent cells was quantified using the MTT assay.

SMILES: Cc1ccc(NC(=O)[C@@]2(C)CC[C@]3(C)CC[C@]4(C)[C@H](C(=O)C=C5[C@@]6(C)C=C(C#N)C(=O)C(C)(C)C6CC[C@]54C)[C@@H]3C2)cc1 (stereo partly shown) [compound 7, N-p-tolyl-2-cyano-3,12-dioxo-18βH-olean-9(11),1(2)-dien-30-amide]
- effect of 7 on TMZ cytotoxicity in EPNT-5 cells (EPNT-5 cells; 7 at 50 nM): antagonistic effect
- IC50 (EPNT-5 cells; Mus musculus, MTT): 199 nM
- percentage of cells in the right quadrants (apoptosis) (U118 cells [1]; U118, 7 450 nM): 82.5%
- percentage of cells in the right quadrants (apoptosis) (U118 cells [1]; U118, 7 1,000 nM): 95.6%
- percentage of cells in the right quadrants (apoptosis) (U118 cells [1]; U118, 7 2000 nM): 96.4%
- percentage of necrotic cells (U118 cells [1]; U118, at any concentration of 7 (450-2000 nM)): ≤ 3.5%
- upregulation of OLIG2 ([2]; TGF-β1-induced U87 cells, 7 50 nM): 2 fold
- reduction of N-cadherin expression compared to TGF-β1-stimulated cells ([2]; U87, 7 50 nM, TGF-β1 50 ng/mL): 67.6%
- reduction of Slug expression compared to TGF-β1-stimulated cells ([2]; U87, 7 50 nM, TGF-β1 50 ng/mL): 35.8%
- reduction of fibronectin expression compared to TGF-β1-stimulated cells ([2]; U87, 7 50 nM, TGF-β1 50 ng/mL): 39.2%
- inhibition at 0.05 µM (U118 cells [3]; U118, 7 50 nM): 26.8%
- inhibition at 0.1 µM (U118 cells [3]; U118, 7 100 nM): 42.8%
- IC50 (U118 glioblastoma cells): 310 nM
- reduction of nuclear-cytoplasmic ratio of SMAD2/3 (SMAD2/3): 52%
- IC50 (U118 cells [4]; Homo sapiens, MTT): 169 nM
- reduction of the cytotoxic effect by NAC (U118 cells [4]; U118, NAC 2 mM, TMZ 125 μM, 7 100 nM): 80.3%
- toxic effects (body weight and organ indices) [5]: no toxic effects
- adhesion of TGF-β1-treated U87 cells to culture plastic (MTT readout) (TGF-β1-treated U87 cells): one of the most pronounced pro-adhesive effects
- adhesion of TGF-β1-treated U87 cells to culture plastic (crystal violet) (TGF-β1-treated U87 cells): restoring it to control levels
